For one assay, the system named is SW48 cells. The experiment in a line: Inhibition of SW48 cell proliferation (CellTiter-Glo). The class given is cell-based. Particulars: Homo sapiens; SW48 cells (MSI-H), 120 hours. As for the experimental part:
The following method was used to determine the effect of the compounds of the present disclosure on SW48 cell proliferation. SW48 cells (MSI-H cells) were purchased from American ATCC cell bank and cultured in Leibovitz's L-15 medium (Gibco, catalog No. 11415064) containing 10% fetal bovine serum, 100 U penicillin, and 100 µg/mL streptomycin. Cell viability was determined by CellTiter-Glo® Luminescent Cell Viability Assay kit (Promega, catalog No. G7573).
The experiment was performed according to the steps of the kit manual, which is briefly described as follows: test compounds were first dissolved in DMSO to prepare 10 mM stock solutions, and then diluted with medium to prepare test samples, with final compound concentrations ranging from 10000 nM to 1.52 nM. Cells in logarithmic growth phase were seeded into 96-well cell culture plates at a density of 500 cells per well and cultured overnight at 37 °C in an air incubator, then test compounds were added and cultivation continued for 120 hours. After the cultivation was completed, 40 µL of CellTiter-Glo detection reagent was added to each well, shaken for 5 minutes, and then left to stand for 10 minutes. Luminescence values of each well were read on a microplate reader using Luminescence mode. The percentage inhibition at each concentration point was calculated by comparison with the control group (0.1% DMSO), and then IC50 values for the compounds for inhibition of cell proliferation were obtained using nonlinear regression analysis of compound concentration logarithm versus inhibition rate in GraphPad Prism 9 software, as shown in Table 2.
The IC50 value results of the compounds of the present disclosure are represented by A, wherein "A" indicates 1 nM < IC50 ≤ 100 nM. Table 2 IC50 data for inhibition of SW48 cell proliferation by the compounds of the present disclosure

Another assay has as its target T1, recombinant human WRN (Homo sapiens, UniProt Q14191).
T1 construct: purchased BPS 101264
The experiment in a line: Inhibition of WRN enzyme activity (ATPase), ADP-Glo Kinase Assay. Type of assay: biochemical. Particulars: WRN protein 5 nM, Flap 0.1 nM, ATP 30 µM; read-out: IC50. In a few lines: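 Recombinant human WRN (5 nM) was preincubated with compound (1000–0.004 nM) for 15 min at room temperature. Flap26 5'-flap DNA (0.1 nM) and 30 µM ATP were then added for 10 min in Tris pH 7.5, MgCl2, NaCl, BSA, Pluronic buffer. ADP was detected by ADP-Glo luminescence, and IC50 was obtained by nonlinear regression versus a 0.1% DMSO control.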

A further assay has as its system RL95-2 cells. Put plainly: Inhibition of RL95-2 cell proliferation (CellTiter-Glo). The class given is cell-based. Particulars: Homo sapiens; RL95-2 cells (MSI-H), 120 hours. In a few lines:
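RL95-2 (MSI-H) cells, 500/well in DMEM/F12 with 10% FBS, adhered overnight, then treated 120 h at 37 °C, 5% CO2 with compound at final 1.52-10000 nM. Viability by CellTiter-Glo luminescence. Inhibition relative to 0.1% DMSO control; IC50 from nonlinear regression of log concentration versus inhibition.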

T1 sequence (Q14191 whole entry): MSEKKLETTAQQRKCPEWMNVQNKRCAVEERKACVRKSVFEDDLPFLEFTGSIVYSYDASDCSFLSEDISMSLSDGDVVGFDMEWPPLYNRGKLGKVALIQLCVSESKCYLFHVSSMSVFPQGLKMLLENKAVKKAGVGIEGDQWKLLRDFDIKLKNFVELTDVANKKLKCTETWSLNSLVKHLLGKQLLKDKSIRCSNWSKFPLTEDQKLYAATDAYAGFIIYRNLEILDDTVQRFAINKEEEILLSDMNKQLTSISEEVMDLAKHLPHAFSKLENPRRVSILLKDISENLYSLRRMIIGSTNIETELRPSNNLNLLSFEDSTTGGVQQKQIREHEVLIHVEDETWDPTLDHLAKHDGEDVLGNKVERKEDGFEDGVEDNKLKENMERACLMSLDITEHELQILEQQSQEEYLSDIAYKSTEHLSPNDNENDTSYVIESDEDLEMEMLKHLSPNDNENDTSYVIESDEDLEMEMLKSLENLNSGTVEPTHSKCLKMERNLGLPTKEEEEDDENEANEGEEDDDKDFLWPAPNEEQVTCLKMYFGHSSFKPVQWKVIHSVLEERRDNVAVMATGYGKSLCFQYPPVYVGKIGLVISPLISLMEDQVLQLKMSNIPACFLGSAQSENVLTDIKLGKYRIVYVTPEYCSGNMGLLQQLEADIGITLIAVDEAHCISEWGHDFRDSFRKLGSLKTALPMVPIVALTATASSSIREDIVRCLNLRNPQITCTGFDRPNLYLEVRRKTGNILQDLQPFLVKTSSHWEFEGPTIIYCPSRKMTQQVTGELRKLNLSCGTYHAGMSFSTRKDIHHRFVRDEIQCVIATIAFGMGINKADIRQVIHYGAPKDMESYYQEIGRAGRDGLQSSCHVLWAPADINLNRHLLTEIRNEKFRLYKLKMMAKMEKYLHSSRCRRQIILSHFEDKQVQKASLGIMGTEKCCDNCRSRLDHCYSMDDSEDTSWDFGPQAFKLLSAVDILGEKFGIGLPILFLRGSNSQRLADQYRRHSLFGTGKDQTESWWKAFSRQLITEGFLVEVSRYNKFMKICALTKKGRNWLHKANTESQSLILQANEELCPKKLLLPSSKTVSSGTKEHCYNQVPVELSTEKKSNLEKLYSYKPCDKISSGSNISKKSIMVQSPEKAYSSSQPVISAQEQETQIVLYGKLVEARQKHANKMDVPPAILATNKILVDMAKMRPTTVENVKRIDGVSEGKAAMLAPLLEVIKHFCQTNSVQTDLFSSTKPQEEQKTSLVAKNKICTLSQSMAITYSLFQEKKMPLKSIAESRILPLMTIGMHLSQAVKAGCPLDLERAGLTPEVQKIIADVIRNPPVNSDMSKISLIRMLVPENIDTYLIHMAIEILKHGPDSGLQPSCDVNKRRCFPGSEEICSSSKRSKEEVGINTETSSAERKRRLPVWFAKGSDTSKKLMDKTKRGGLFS

With `CCc1c(N2CCN(C(=O)c3ncnc(C)c3O)CC2)c(=O)n2nc(-c3ccc4c(c3)CCO4)nc2n1CC(=O)Nc1ccc(S(F)(F)(F)(F)F)cc1` [Example 86, 2-(2-(2,3-dihydrobenzofuran-5-yl)-5-ethyl-6-(4-(5-hydroxy-6-methylpyrimidine-4-carbonyl)piperazin-1-yl)-7-oxo-[1,2,4]triazolo[1,5-a]pyrimidin-4(7H)-yl)-N-(4-(pentafluoro-λ^6-sulfaneyl)phenyl)acetamide], the IC50 in the assay on SW48 cells, on recombinant human WRN and with RL95-2 cells was 1 to 100 nM in each case.
Consider `CCc1c(N2CCN(C(=O)c3ncnc(C)c3O)CC2)c(=O)n2nc(-c3ccc4c(c3)CCO4)nc2n1CC(=O)Nc1ccc(S(F)(F)(F)(F)F)cc1C` [Example 88, 2-(2-(2,3-dihydrobenzofuran-5-yl)-5-ethyl-6-(4-(5-hydroxy-6-methylpyrimidine-4-carbonyl)piperazin-1-yl)-7-oxo-[1,2,4]triazolo[1,5-a]pyrimidin-4(7H)-yl)-N-(2-methyl-4-(pentafluoro-λ^6-sulfaneyl)phenyl)acetamide], for which the 50% inhibitory concentration (IC50) in the assay with SW48 cells, at recombinant human WRN and in the assay on RL95-2 cells was 1 to 100 nM in each case.
Regarding `CCc1c(N2CCN(C(=O)c3ncnc(C)c3O)CC2)c(=O)n2nc(-c3cc4ccccc4s3)nc2n1CC(=O)Nc1ccc(S(F)(F)(F)(F)F)cc1` [Example 98, 2-(2-(benzo[b]thiophen-2-yl)-5-ethyl-6-(4-(5-hydroxy-6-methylpyrimidine-4-carbonyl)piperazin-1-yl)-7-oxo-[1,2,4]triazolo[1,5-a]pyrimidin-4(7H)-yl)-N-(4-(pentafluoro-λ^6-sulfaneyl)phenyl)acet amide], the IC50 in the assay on SW48 cells, on recombinant human WRN and with RL95-2 cells was 1 to 100 nM in each case.
As for `CCc1c(N2CCN(C(=O)c3ncnc(C)c3O)CC2)c(=O)n2nc(-c3ccc4nn(C)cc4c3)nc2n1CC(=O)Nc1ccc(C(F)(F)F)cc1Cl` [Example 99, N-(2-Chloro-4-(trifluoromethyl)phenyl)-2-(5-ethyl-6-(4-(5-hydroxy-6-methylpyrimidine-4-carbonyl)piperazin-1-yl)-2-(2-methyl-2H-indazol-5-yl)-7-oxo-[1,2,4]triazolo[1,5-a]pyrimidin-4(7H)-yl)acetamide], the 50% inhibitory concentration (IC50) in the assay on SW48 cells, on recombinant human WRN and in the assay on RL95-2 cells was 1 to 100 nM in each case.
With `CCc1c(N2CCN(C(=O)c3ncnc(C)c3O)CC2)c(=O)n2nc(-c3cnc4[nH]ccc4c3)nc2n1CC(=O)Nc1ccc(C(F)(F)F)cc1Cl` [Example 101, N-(2-chloro-4-(trifluoromethyl)phenyl)-2-(5-ethyl-6-(4-(5-hydroxy-6-methylpyrimidine-4-carbonyl)piperazin-1-yl)-7-oxo-2-(1H-pyrrolo[2,3-b]pyridin-5-yl)-[1,2,4]triazolo[1,5-a]pyrimidin-4(7H) -yl)acetamide], the half-maximal inhibitory concentration (IC50) was 1 to 100 nM with SW48 cells, < 1 nM on recombinant human WRN and 1 to 100 nM in the assay with RL95-2 cells.
With `CCc1c(N2CCN(C(=O)c3ncnc(C)c3O)CC2)c(=O)n2nc(-c3ccc4[nH]ccc4c3)nc2n1CC(=O)Nc1ccc(C(F)(F)F)cc1Cl` [Example 102, N-(2-chloro-4-(trifluoromethyl)phenyl)-2-(5-ethyl-6-(4-(5-hydroxy-6-methylpyrimidine-4-carbonyl)piperazin-1-yl)-2-(1H-indol-5-yl)-7-oxo-[1,2,4]triazolo[1,5-a]pyrimidin-4(7H)-yl)acetamide], the half-maximal inhibitory concentration (IC50) in the assay on SW48 cells, on recombinant human WRN and in the assay with RL95-2 cells was 1 to 100 nM each time.
For `CCc1c(N2CCN(C(=O)c3ncnc(C)c3O)CC2)c(=O)n2nc(-c3ccc4n[nH]cc4c3)nc2n1CC(=O)Nc1ccc(C(F)(F)F)cc1Cl` [Example 112, N-(2-chloro-4-(trifluoromethyl)phenyl)-2-(5-ethyl-6-(4-(5-hydroxy-6-methylpyrimidine-4-carbonyl)piperazin-1-yl)-2-(1H-indazol-5-yl)-7-oxo-[1,2,4]triazolo[1,5-a]pyrimidin-4(7H)-yl)acetamide], the half-maximal inhibitory concentration (IC50) in the assay with SW48 cells, on recombinant human WRN and with RL95-2 cells was 1 to 100 nM each time.
`CCc1c(N2CCN(C(=O)c3ncnc(C)c3O)CC2)c(=O)n2nc(-c3ccc4c(cnn4C)c3)nc2n1CC(=O)Nc1ccc(C(F)(F)F)cc1Cl` [Example 113, N-(2-chloro-4-(trifluoromethyl)phenyl)-2-(5-ethyl-6-(4-(5-hydroxy-6-methylpyrimidine-4-carbonyl)piperazin-1-yl)-2-(1-methyl-1H-indazol-5-yl)-7-oxo-[1,2,4]triazolo[1,5-a]pyrimidin-4(7H)-yl) acetamide]: the IC50 in the assay on SW48 cells, at recombinant human WRN and with RL95-2 cells was 1 to 100 nM each time.
For `CCc1c(N2CCN(C(=O)c3ncnc(C)c3O)CC2)c(=O)n2nc(C3=CC4CCC3C4)nc2n1CC(=O)Nc1ccc(S(F)(F)(F)(F)F)cc1` (stereo not drawn) [Example 118, 2-(2-(bicyclo[2.2.1]hept-2-en-2-yl)-5-ethyl-6-(4-(5-hydroxy-6-methylpyrimidine-4-carbonyl)piperazin-1-yl)-7-oxo-[1,2,4]triazolo[1,5-a]pyrimidin-4(7H)-yl)-N-(4-(pentafluoro-λ^6-sulfaneyl)phenyl)acetamide], the half-inhibitory concentration (IC50) in the assay with SW48 cells, on recombinant human WRN and in the assay on RL95-2 cells was 1 to 100 nM in each case.
On to `CCc1c(N2CCN(C(=O)c3ncnc(C)c3O)CC2)c(=O)n2nc(C3=CCC4(CC3)CC4)nc2n1CC(=O)Nc1ccc(S(F)(F)(F)(F)F)cc1` [Example 120, 2-(5-ethyl-6-(4-(5-hydroxy-6-methylpyrimidine-4-carbonyl)piperazin-1-yl)-7-oxo-2-(spiro[2.5]oct-5-en-6-yl)-[1,2,4]triazolo[1,5-a]pyrimidin-4(7H)-yl)-N-(4-(pentafluoro-λ6-sulfaneyl)phenyl)ace tamide], for which the IC50 in the assay with SW48 cells, on recombinant human WRN and with RL95-2 cells was 1 to 100 nM throughout.
Consider `CCc1c(N2CCN(C(=O)c3ncccc3O)CC2)c(=O)n2nc(C3=CC4CC(O)CC4C3)nc2n1CC(=O)Nc1ccc(C(F)(F)F)cc1Cl` (stereo not drawn) [Example 121, N-(2-chloro-4-(trifluoromethyl)phenyl)-2-(5-ethyl-2-(5-hydroxy-1,3a,4,5,6,6a-hexahydropentalen-2-yl)-6-(4-(3-hydroxypicolinoyl)piperazin-1-yl)-7-oxo-[1,2,4]triazolo[1,5-a]pyrimidin-4(7H)-yl) acetamide], for which the concentration for half-maximal inhibition (IC50) with SW48 cells, on recombinant human WRN and with RL95-2 cells was 1 to 100 nM each time.
For `CCc1c(N2CCN(C(=O)c3ncnc(C)c3O)CC2)c(=O)n2nc(-c3ccc4cc[nH]c4c3)nc2n1CC(=O)Nc1ccc(C(F)(F)F)cc1Cl` [Example 123, N-(2-chloro-4-(trifluoromethyl)phenyl)-2-(5-ethyl-6-(4-(5-hydroxy-6-methylpyrimidine-4-carbonyl)piperazin-1-yl)-2-(1H-indo1-6-yl)-7-oxo-[1,2,4]triazolo[1,5-a]pyrimidin-4(7H)-yl)acetamide], the IC50 with SW48 cells, on recombinant human WRN and in the assay on RL95-2 cells was 1 to 100 nM each time.
Take `CCc1c(N2CCN(C(=O)c3ncnc(C)c3O)CC2)c(=O)n2nc(-c3ccc4nccn4c3)nc2n1CC(=O)Nc1ccc(C(F)(F)F)cc1Cl` [Example 126, N-(2-chloro-4-(trifluoromethyl)phenyl)-2-(5-ethyl-6-(4-(5-hydroxy-6-methylpyrimidine-4-carbonyl)piperazin-1-yl)-2-(imidazo[1,2-a]pyridin-6-yl)-7-oxo-[1,2,4]triazolo[1,5-a]pyrimidin-4(7H)-yl)acetamide]: the IC50 with SW48 cells, at recombinant human WRN and with RL95-2 cells was 1 to 100 nM in each case.
For `CCc1c(N2CCN(C(=O)c3ncnc(C)c3O)CC2)c(=O)n2nc(-c3ccc4c(c3)COC4)nc2n1CC(=O)Nc1ccc(C(F)(F)F)cc1Cl` [Example 129, N-(2-chloro-4-(trifluoromethyl)phenyl)-2-(2-(1,3-dihydroisobenzofuran-5-yl)-5-ethyl-6-(4-(5-hydroxy-6-methylpyrimidine-4-carbonyl)piperazin-1-yl)-7-oxo-[1,2,4]triazolo[1,5-a]pyrimidin-4(7 H)-yl)acetamide], the IC50 in the assay with SW48 cells, at recombinant human WRN and in the assay with RL95-2 cells was 1 to 100 nM in each case.

The record behind these values is patent EP4800015A1, “AZABICYCLO DERIVATIVE AND PREPARATION METHOD THEREFOR, AND USE” (Zhejiang Hisun Pharmaceutical Co., Ltd., priority 2023, dated 2025).
